One test concerns 22RV1 cells. Kind of test: Cell proliferation assay (CellTiter Glo), 22RV1. The class given is cell-based. As to conditions: Homo sapiens, 22Rv1, 72 h, read-out: 22RV1 IC50. The protocol:
IC50 values were calculated and graphed using the model “log(inhibitor) vs. response—Variable slope” included in GraphPad Prism 5 (San Diego, CA). The Ki values were further calculated using the equation below where [L] was the radioligand concentration (1 nM) using in this study. Kd value was 0.332 nM. Ki=IC50/(1+[L]/Kd) c. AR transactivation: Human AR cloned into a CMV vector backbone was used for the transactivation study. HEK-293 cells were plated at 80,000 cells per well of a 24 well plate in DME+5% csFBS. Twenty four hours later, the cells were transfected using Lipofectamine (Invitrogen, Carlsbad, CA) with 0.25 μg GRE-LUC, 0.01 μg CMV-LUC (renilla luciferase) and 25 ng of the AR in OPTIMEM medium. The cells were treated 24 hrs after transfection with various ligands (10^−12 to 10^−5 M final concentrations) and luciferase assay were performed 48 hours after transfection. Firefly values were normalized to renilla luciferase values and the values were represented as relative light units (RLU). Agonist and antagonist assays for the test article were performed in the absence and in the combination with 0.1 nM R1881, respectively. Data were represented as EC50 (for agonists) and IC50 (for antagonists) obtained from four parameter logistics curve. Cell culture and proliferation assays: LNCaP, PC-3, 22RV1, MCF-7, HT-29, and HCT-116 cells were procured from American Type Culture Collection (ATCC). Cells were cultured in medium recommended by the ATCC. Cell culture medium was obtained from Fisher scientific (Waltham, MA) and serum was obtained from Hyclone (San Angelo, TX).
Cells were plated at varying density in the respective growth medium in 96 well plates. 24 hr later, cells were treated, in triplicate or quadruplicate, with test articles prepared in a range of concentrations by series dilution of DMSO stock solutions in growth medium and incubated for three to seven days. The number of viable 22RV1 and HT-29 cells was measured using CellTiter Glo assay (CTG, Promega, Madison, WI) after three days of treatment. The other types of cancer cells were re-treated at three or four days and the number of viable cells was measured using CTG assay after a total treatment time of six or seven days. Cell viability data were plotted using GraphPad Prism (GraphPad Software, Inc., San Diego, CA). In addition, a nonlinear regression model with a sigmoidal dose response and variable slope within GraphPad Prism was used to calculate the IC50 value of individual test articles. Additional cell proliferation assays: Other cancer cell lines are tested in a cell proliferation assay. For example, SK-OV-3 or OVCAR3 ovarian cancer cells are tested. Cells are cultured in medium recommended by the supplier (e.g., ATCC or JCRB Cell Bank), at 37° C. in a 5% CO2 environment. For the proliferation assay, cells are plated in the growth medium in 96 well plates. Seeding density is adjusted according to the cell type. 24 hr later, cells are treated, in triplicate or quadruplicate, with test articles prepared in a range of concentrations by series dilution of DMSO stock solutions in growth medium, and typically incubated for three to seven days, with test article-containing medium replaced after three or four days. The number of viable cells is measured using CellTiter Glo assay (CTG, Promega, Madison, WI) or similar. Cell viability data are plotted using GraphPad Prism (GraphPad Software, Inc., San Diego, CA). In addition, a nonlinear regression model with a sigmoidal dose response and variable slope within GraphPad Prism is used to calculate the IC50 value of individual test articles. Similarly, HEK-293 and HeLa calls can also be tested by methods known in the art. • f. Nuclear translocation: LNCaP cells are plated on coverslips in 24 well plates in growth medium. Twenty-four hours after plating, medium is changed to RPMI+1% csFBS and the cells are maintained in this medium for two days. Medium is replaced again and the cells are treated. […]

Another test has as its target Human recombinant PARP1 (Homo sapiens, UniProt P09874). As to the kind of experiment: RBC HotSpot PARP1 radioisotope-based filter binding assay. It is filed as biochemical. In short, it runs like this:
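Radiometric filter-binding assay: 2.5 nM recombinant enzyme with 20 μM histone (H4 for PARP1, H3 for PARP2) and activated DNA, pH 8.0, 1% DMSO. 20 min preincubation, then 10 μM ^32P-NAD^+ for 2 h at room temperature; filtered radioactivity gives IC50 fits.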

[1] abbreviates: cell growth inhibition, three days of treatment.
The mark [2] stands for this setting: 2.5 nM enzyme, histone H4, 10 μM 32P-NAD+, read-out: PARP1 IC50.

Like-named read-outs stand apart in the source and are kept apart here. Where only a bound is given, the exact number is not on record here.

Human recombinant PARP1, sequence (P09874 whole entry): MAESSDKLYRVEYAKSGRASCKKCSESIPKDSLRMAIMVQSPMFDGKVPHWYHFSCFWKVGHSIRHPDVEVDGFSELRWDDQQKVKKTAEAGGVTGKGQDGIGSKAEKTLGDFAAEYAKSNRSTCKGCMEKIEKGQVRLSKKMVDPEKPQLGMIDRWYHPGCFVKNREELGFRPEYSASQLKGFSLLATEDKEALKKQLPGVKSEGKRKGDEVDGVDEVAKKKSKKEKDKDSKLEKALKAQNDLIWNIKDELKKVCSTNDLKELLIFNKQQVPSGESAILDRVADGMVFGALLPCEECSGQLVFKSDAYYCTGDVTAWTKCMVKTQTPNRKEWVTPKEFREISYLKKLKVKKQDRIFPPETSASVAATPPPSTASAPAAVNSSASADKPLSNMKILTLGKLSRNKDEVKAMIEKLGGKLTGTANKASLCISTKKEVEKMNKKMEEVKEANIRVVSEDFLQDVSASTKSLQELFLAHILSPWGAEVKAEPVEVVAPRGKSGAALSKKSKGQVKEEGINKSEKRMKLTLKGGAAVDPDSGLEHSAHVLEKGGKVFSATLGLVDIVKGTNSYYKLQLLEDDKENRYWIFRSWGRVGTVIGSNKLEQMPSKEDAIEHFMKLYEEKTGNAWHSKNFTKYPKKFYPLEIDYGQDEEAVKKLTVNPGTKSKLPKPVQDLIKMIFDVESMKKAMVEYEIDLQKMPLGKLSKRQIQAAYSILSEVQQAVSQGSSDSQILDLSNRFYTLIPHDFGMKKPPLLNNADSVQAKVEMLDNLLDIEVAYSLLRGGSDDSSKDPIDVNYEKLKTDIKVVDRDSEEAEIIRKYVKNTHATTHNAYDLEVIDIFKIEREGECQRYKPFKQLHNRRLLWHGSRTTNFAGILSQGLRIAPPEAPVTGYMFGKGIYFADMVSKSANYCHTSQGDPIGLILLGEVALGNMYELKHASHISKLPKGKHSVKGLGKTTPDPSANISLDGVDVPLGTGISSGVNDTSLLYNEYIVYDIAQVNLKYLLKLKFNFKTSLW

Consider `C[C@]12CCC(=O)C[C@@H]1CC[C@@H]1[C@@H]2CC[C@]2(C)[C@@H](OCC(=O)N3CCN(C(=O)c4cc(Cc5n[nH]c(=O)c6ccccc56)ccc4F)CC3)CC[C@@H]12` [Compound 1.110, 4-(3-(4-(2-((5S,8R,9S,10S,13S,14S,17S)-10,13-dimethyl-3-oxohexadecahydro-1H-cyclopenta[a]phenanthren-17-yloxy)acetyl)piperazine-1-carbonyl)-4-fluorobenzyl)phthalazin-1(2H)-one], for which the figures for the IC50 in the test with 22RV1 cells (setting [1]) and at Human recombinant PARP1 (setting [2]) were 0.84 µM and 0.0007 µM, respectively.

`O=C(c1ccc(OCCN2CCN(C(=O)c3cc(Cc4n[nH]c(=O)c5ccccc45)ccc3F)CC2)cc1)c1c(-c2ccc(O)cc2)sc2cc(O)ccc12` [Compound 2.13, 4-(4-fluoro-3-(4-(2-(4-(6-hydroxy-2-(4-hydroxyphenyl)benzo[b]thiophene-3-carbonyl)phenoxy)ethyl)piperazine-1-carbonyl)benzyl)phthalazin-1(2H)-one]: the IC50 in the test on 22RV1 cells (setting [1]) is 1.69 µM; on Human recombinant PARP1 (setting [2]) it was 0.0033 µM.

As to `C[C@](O)(COc1ccc(NCCCCCC(=O)N2CCN(C(=O)c3cc(Cc4n[nH]c(=O)c5ccccc45)ccc3F)CC2)cc1)C(=O)Nc1ccc(C#N)c(C(F)(F)F)c1` [Compound 1.83, (S)-N-(4-cyano-3-(trifluoromethyl)phenyl)-3-(4-(6-(4-(2-fluoro-5-((4-oxo-3,4-dihydrophthalazin-1-yl)methyl)benzoyl)piperazin-1-yl)-6-oxohexylamino)phenoxy)-2-hydroxy-2-methylpropanamide], the values for the IC50 with 22RV1 cells and on Human recombinant PARP1 (setting [2]) were more than 30 µM and 0.0007 µM, respectively.

For `C[C@]12CCC(=O)C[C@@H]1CC[C@@H]1[C@@H]2CC[C@@]2(C)[C@H]1CC[C@@]2(O)C#CC(=O)N1CCN(C(=O)c2cc(Cc3n[nH]c(=O)c4ccccc34)ccc2F)CC1` [Compound 1.116, 4-(4-fluoro-3-(4-(3-((5S,8R,9S,10S,13S,14S,17S)-17-hydroxy-10,13-dimethyl-3-oxohexadecahydro-1H-cyclopenta[a]phenanthren-17-yl)propioloyl)piperazine-1-carbonyl)benzyl)phthalazin-1(2H)-one], the IC50 in the test with 22RV1 cells (setting [1]) came out at 2.6 µM; on Human recombinant PARP1 (setting [2]), 0.0005 µM.

Regarding `CC(O)(CS(=O)(=O)c1ccc(NCCn2cc(CN3CCN(C(=O)c4cc(Cc5n[nH]c(=O)c6ccccc56)ccc4F)CC3)nn2)cc1)C(=O)Nc1ccc(C#N)c(C(F)(F)F)c1` (stereo in doubt) [Compound 1.97, (S)-N-(4-cyano-3-(trifluoromethyl)phenyl)-3-(4-(2-(4-((4-(2-fluoro-5-((4-oxo-3,4-dihydrophthalazin-1-yl)methyl)benzoyl)piperazin-1-yl)methyl)-1H-1,2,3-triazol-1-yl)ethylamino)phenylsulfonyl)-2-hydroxy-2-methylpropanamide], the results for the IC50 in the test on 22RV1 cells and on Human recombinant PARP1 were more than 30 µM and 0.002 µM, respectively.

Regarding `C[C@]12CCC(=O)C[C@@H]1CC[C@@H]1[C@@H]2CC[C@@]2(C)[C@H]1CC[C@@]2(O)C#CCN1CCN(C(=O)c2cc(Cc3n[nH]c(=O)c4ccccc34)ccc2F)CC1` [Compound 1.118, 4-(4-fluoro-3-(4-(3-((5S,8R,9S,10S,13S,14S,17S)-17-hydroxy-10,13-dimethyl-3-oxohexadecahydro-1H-cyclopenta[a]phenanthren-17-yl)prop-2-ynyl)piperazine-1-carbonyl)benzyl)phthalazin-1(2H)-one], the IC50 in the test on 22RV1 cells (setting [1]) amounted to 9.7 µM; on Human recombinant PARP1 (setting [2]) it was 0.0136 µM.

`C[C@]12CCC(=O)C[C@@H]1CC[C@@H]1[C@@H]2CC[C@]2(C)[C@@H](OCCOCC(=O)N3CCN(C(=O)c4cc(Cc5n[nH]c(=O)c6ccccc56)ccc4F)CC3)CC[C@@H]12` [Compound 1.104, 4-(3-(4-(2-(2-((5S,8R,9S,10S,13S,14S,17S)-10,13-dimethyl-3-oxohexadeca hydro-1H-cyclopenta[a]phenanthren-17-yloxy)ethoxy)acetyl)piperazine-1-carbonyl)-4-fluorobenzyl)phthalazin-1(2H)-one]: the IC50 in the test with 22RV1 cells (setting [1]) was 1.1 µM; on Human recombinant PARP1 (setting [2]) it was 0.0012 µM.

Regarding `C[C@]12CCC(=O)C[C@@H]1CC[C@@H]1[C@@H]2CC[C@@]2(C)[C@H]1CC[C@@]2(O)c1cn(CC(=O)N2CCN(C(=O)c3cc(Cc4n[nH]c(=O)c5ccccc45)ccc3F)CC2)nn1` [Compound 1.107, 4-(4-fluoro-3-(4-(2-(4-((5S,8R,9S,10S,13S,14S,17S)-17-hydroxy-10,13-dimethyl-3-oxohexadecahydro-1H-cyclopenta[a]phenanthren-17-yl)-1H-1,2,3-triazol-1-yl)acetyl)piperazine-1-carbonyl)benzyl)phthalazin-1(2H)-one], the IC50 in the test with 22RV1 cells (setting [1]) turned out to be 1.3 µM; at Human recombinant PARP1 (setting [2]) it was 0.0003 µM.

For the origin of these results see US12398121B2 (Nuvation Bio Inc., priority 2018, dated 2025).
